Source: patent publication US9150577B2, “Heterocyclic compounds containing an indole core” (Boehringer Ingelheim International GmbH, priority 2009, dated 2015)

What follows are molecules tested against Human RSK2 (Homo sapiens (Human), UniProt P51812) (assay: Human RSK2 assay (Kinase Glo Plus, residual ATP);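 note: recombinant human RSK2 phosphorylating a substrate peptide, 90 min at 28 °C, leftover ATP read by luminescence, RLU scaled between no-kinase background and uninhibited kinase controls, 4-parameter fit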).
Format: biochemical

Human RSK2, sequence (P51812 whole entry): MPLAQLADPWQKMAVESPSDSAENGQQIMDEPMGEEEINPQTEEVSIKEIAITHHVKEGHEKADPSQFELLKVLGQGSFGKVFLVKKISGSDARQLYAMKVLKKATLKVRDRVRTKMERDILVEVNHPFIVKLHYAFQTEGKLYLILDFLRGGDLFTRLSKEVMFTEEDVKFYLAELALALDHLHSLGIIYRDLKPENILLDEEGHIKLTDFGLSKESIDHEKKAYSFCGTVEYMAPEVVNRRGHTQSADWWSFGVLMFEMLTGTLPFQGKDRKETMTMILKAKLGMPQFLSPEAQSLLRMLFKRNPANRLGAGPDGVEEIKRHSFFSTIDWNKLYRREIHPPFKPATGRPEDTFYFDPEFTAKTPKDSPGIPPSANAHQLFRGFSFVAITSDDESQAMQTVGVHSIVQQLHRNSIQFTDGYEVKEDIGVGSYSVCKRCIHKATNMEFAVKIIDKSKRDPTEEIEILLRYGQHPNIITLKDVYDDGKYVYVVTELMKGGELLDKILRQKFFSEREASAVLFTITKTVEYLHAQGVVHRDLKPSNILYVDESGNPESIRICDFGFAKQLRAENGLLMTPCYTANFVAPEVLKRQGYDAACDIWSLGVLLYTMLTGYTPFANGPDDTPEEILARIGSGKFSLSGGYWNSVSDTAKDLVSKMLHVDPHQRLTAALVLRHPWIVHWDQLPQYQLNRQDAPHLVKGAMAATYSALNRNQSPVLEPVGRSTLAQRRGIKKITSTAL

Compared with `CC(C)n1c(NC(=O)c2ccc3cc4n(c3c2)[C@@H](C)[C@@H](C)NC4=O)nc2ccccc21` (relative stereo) [Example 67, cis-3,4-dimethyl-1-oxo-N-[1-(propan-2-yl)-1H-benzimidazol-2-yl]-1,2,3,4-tetrahydropyrazino[1,2-a]indole-7-carboxamide], `C[C@@H]1NC(=O)c2cc3ccc(C(=O)Nc4cccnc4)cc3n2[C@H]1C` (relative stereo) [Example 180, Trans-3,4-dimethyl-1-oxo-N-(pyridin-3-yl)-1,2,3,4-tetrahydropyrazino[1,2-a]indole-7-carboxamide] is 260-fold higher in IC50: 3.4 nM for the first, 895 nM for the second. The first is the more potent here.

First: C[C@@H]1CNC(=O)c2cc3ccc(C(=O)Nc4cnn(Cc5ccccc5)c4)cc3n2[C@H]1C [Example 137, (4R,5S)-N-(1-benzyl-1H-pyrazol-4-yl)-trans-4,5-dimethyl-1-oxo-2,3,4,5-tetrahydro-1H-[1,4]diazepino[1,2-a]indole-8-carboxamide]
Second: C[C@H]1NC(=O)c2cc3ccc(C(=O)Nc4cnn(Cc5ccccc5)c4)cc3n2[C@H]1C [Example 142, (3R,4S)-N-(1-benzyl-1H-pyrazol-4-yl)-3,4-dimethyl-1-oxo-1,2,3,4-tetrahydropyrazino[1,2-a]indole-7-carboxamide]
The IC50 of the first is 1.5-fold lower: 43.5 nM for the first, 65.5 nM for the second.

Compared with `Cc1cc(NC(=O)c2ccc3cc4n(c3c2)CC2(CCNCC2)CNC4=O)no1` [Example 237, N-(5-methyl-1,2-oxazol-3-yl)-1-oxo-2,3-dihydro-1H-spiro[1,4-diazepino[1,2-a]indole-4,4′-piperidine]-8-carboxamide], `Cc1cc(NC(=O)c2ccc3cc4n(c3c2)CC(F)(F)CNC4=O)no1` [Example 167, 4,4-difluoro-N-(5-methyl-1,2-oxazol-3-yl)-1-oxo-2,3,4,5-tetrahydro-1H-[1,4]diazepino[1,2-a]indole-8-carboxamide] is 9.4-fold lower in IC50: 6300 nM for the first, 670 nM for the second. The second is the more potent here.

First: Cc1cccc(-c2cc(NC(=O)c3ccc4cc5n(c4c3)CCCNC5=O)on2)c1 [Example 200, N-[3-(3-methylphenyl)-1,2-oxazol-5-yl]-1-oxo-2,3,4,5-tetrahydro-1H-[1,4]diazepino[1,2-a]indole-8-carboxamide]
Second: CC1(c2cc(NC(=O)c3ccc4cc5n(c4c3)CCCNC5=O)on2)CC1 [Example 197, N-[3-(1-methylcyclopropyl)-1,2-oxazol-5-yl]-1-oxo-2,3,4,5-tetrahydro-1H-[1,4]diazepino[1,2-a]indole-8-carboxamide]
The IC50 of the first is 5.9-fold higher: 160 nM for the first, 27 nM for the second. The second is the more potent here.

`CC(C)n1ccc(NC(=O)c2ccc3cc4n(c3c2)CCCNC4=O)n1` [Example 13, 1-oxo-N-[1-(propan-2-yl)-1H-pyrazol-3-yl]-2,3,4,5-tetrahydro-1H-[1,4]diazepino[1,2-a]indole-8-carboxamide] and `Cn1ccnc1NC(=O)c1ccc2cc3n(c2c1)CCCNC3=O` [Example 109, N-(1-methyl-1H-imidazol-2-yl)-1-oxo-2,3,4,5-tetrahydro-1H-[1,4]diazepino[1,2-a]indole-8-carboxamide] are within 1.5-fold of each other in IC50: 1600 nM for the first, 2200 nM for the second.

`O=C(Nc1cccc(N2CCOCC2)c1)c1ccc2cc3n(c2c1)CCCNC3=O` [Example 7, N-[3-(morpholin-4-yl)phenyl]-1-oxo-2,3,4,5-tetrahydro-1H-[1,4]diazepino[1,2-a]indole-8-carboxamide] and `O=C(Nc1nc2ccccc2n1CCN1CCOCC1)c1ccc2cc3n(c2c1)CCCNC3=O` [Example 104, N-{1-[2-(morpholin-4-yl)ethyl]-1H-benzimidazol-2-yl}-1-oxo-2,3,4,5-tetrahydro-1H-[1,4]diazepino[1,2-a]indole-8-carboxamide] are within 1.5-fold of each other in IC50: 60 nM for the first, 54 nM for the second.

`COc1ccc(NC(=O)c2ccc3cc4n(c3c2)CCCNC4=O)cc1` [Example 149, N-(4-methoxyphenyl)-1-oxo-2,3,4,5-tetrahydro-1H-[1,4]diazepino[1,2-a]indole-8-carboxamide] and `CC(C)c1ccc(NC(=O)c2ccc3cc4n(c3c2)CCCNC4=O)cc1` [Example 146, 1-oxo-N-[4-(propan-2-yl)phenyl]-2,3,4,5-tetrahydro-1H-[1,4]diazepino[1,2-a]indole-8-carboxamide] are within 1.5-fold of each other in IC50: 110 nM for the first, 89 nM for the second.

Going from `COc1ccccc1NC(=O)c1ccc2cc3n(c2c1)CCCNC3=O` [Example 147, N-(2-methoxyphenyl)-1-oxo-2,3,4,5-tetrahydro-1H-[1,4]diazepino[1,2-a]indole-8-carboxamide] to `O=C(Nc1nc2ccccc2[nH]1)c1ccc2cc3n(c2c1)CCCNC3=O` [Example 55, N-(1H-benzimidazol-2-yl)-1-oxo-2,3,4,5-tetrahydro-1H-[1,4]diazepino[1,2-a]indole-8-carboxamide], the IC50 falls from 400 nM to 4.4 nM (91-fold). The second is the more potent here.

Compared with `Cc1cc(NC(=O)c2ccc3cc4n(c3c2)[C@H](C)[C@H](C)NC4=O)no1` [Example 171, (3S,4R)-3,4-dimethyl-N-(5-methyl-1,2-oxazol-3-yl)-1-oxo-1,2,3,4-tetrahydropyrazino[1,2-a]indole-7-carboxamide], `Cc1cc(NC(=O)c2ccc3cc4n(c3c2)[C@@H](C)[C@@H](C)NC4=O)no1` [Example 172, (3R,4S)-3,4-dimethyl-N-(5-methyl-1,2-oxazol-3-yl)-1-oxo-1,2,3,4-tetrahydropyrazino[1,2-a]indole-7-carboxamide] is 280-fold higher in IC50: 4 nM for the first, 1100 nM for the second.

`CN(C)CCCn1c(NC(=O)c2ccc3cc4n(c3c2)CC(F)(F)CNC4=O)nc2ccccc21` [Example 121, N-{1-[3-(dimethylamino)propyl]-1H-benzimidazol-2-yl}-4,4-difluoro-1-oxo-2,3,4,5-tetrahydro-1H-[1,4]diazepino[1,2-a]indole-8-carboxamide] and `CN(C)CCn1c(NC(=O)c2ccc3cc4n(c3c2)CCCNC4=O)nc2ccccc21` [Example 103, N-{1-[2-(dimethylamino)ethyl]-1H-benzimidazol-2-yl}-1-oxo-2,3,4,5-tetrahydro-1H-[1,4]diazepino[1,2-a]indole-8-carboxamide] are the same in IC50: 23 nM for the first, 23 nM for the second.

First: Cc1cc(NC(=O)c2ccc3cc4n(c3c2)C(C)CNC4=O)no1 (stereo not drawn) [Example 174, 4-methyl-N-(5-methyl-1,2-oxazol-3-yl)-1-oxo-1,2,3,4-tetrahydropyrazino[1,2-a]indole-7-carboxamide]
Second: Cc1cc(NC(=O)c2ccc3cc4n(c3c2)CC(C)(C)CNC4=O)no1 [Example 157, 4,4-dimethyl-N-(5-methyl-1,2-oxazol-3-yl)-1-oxo-2,3,4,5-tetrahydro-1H-[1,4]diazepino[1,2-a]indole-8-carboxamide]
The IC50 of the first is 53-fold lower: 34 nM for the first, 1800 nM for the second.

First: C[C@@H]1CCNC(=O)c2cc3ccc(C(=O)Nc4cnn(Cc5ccccc5)c4)cc3n21 [Example 143, (5R)-N-(1-benzyl-1H-pyrazol-4-yl)-5-methyl-1-oxo-2,3,4,5-tetrahydro-1H-[1,4]diazepino[1,2-a]indole-8-carboxamide]
Second: O=C(Nc1cnn(Cc2ccccc2)c1)c1ccc2cc3n(c2c1)CC(F)(F)CNC3=O [Example 115, N-(1-benzyl-1H-pyrazol-4-yl)-4,4-difluoro-1-oxo-2,3,4,5-tetrahydro-1H-[1,4]diazepino[1,2-a]indole-8-carboxamide]
The IC50 of the first is 45-fold lower: 0.71 nM for the first, 32 nM for the second.

Going from `CCn1c(NC(=O)c2ccc3cc4n(c3c2)CCCNC4=O)nc2cc(C)ccc21` [Example 40, N-(1-ethyl-5-methyl-1H-benzimidazol-2-yl)-1-oxo-2,3,4,5-tetrahydro-1H-[1,4]diazepino[1,2-a]indole-8-carboxamide] to `COc1cc(NC(=O)c2ccc3cc4n(c3c2)CCCNC4=O)ccn1` [Example 204, N-(2-methoxypyridin-4-yl)-1-oxo-2,3,4,5-tetrahydro-1H-[1,4]diazepino[1,2-a]indole-8-carboxamide], the IC50 rises from 4.8 nM to 17 nM (3.5-fold). The first is the more potent here.

Compared with `CC1CNC(=O)c2cc3ccc(C(=O)Nc4cn[nH]c4)cc3n2C1` (stereo not drawn) [Example 17, 4-methyl-1-oxo-N-(1H-pyrazol-4-yl)-2,3,4,5-tetrahydro-1H-[1,4]diazepino[1,2-a]indole-8-carboxamide], `C[C@H]1CNC(=O)c2cc3ccc(C(=O)Nc4cccnc4)cc3n21` [Example 155, (4S)-4-methyl-1-oxo-N-(pyridin-3-yl)-1,2,3,4-tetrahydropyrazino[1,2-a]indole-7-carboxamide] is 16-fold higher in IC50: 145 nM for the first, 2300 nM for the second. The first is the more potent here.

Compared with `Cc1cc(NC(=O)c2ccc3cc4n(c3c2)CCCNC4=O)n[nH]1` [Example 219, N-(5-methyl-1H-pyrazol-3-yl)-1-oxo-2,3,4,5-tetrahydro-1H-[1,4]diazepino[1,2-a]indole-8-carboxamide], `CN(C)CCn1cc(NC(=O)c2ccc3cc4n(c3c2)CCCNC4=O)cn1` [Example 119, N-{1-[2-(dimethylamino)ethyl]-1H-pyrazol-4-yl}-1-oxo-2,3,4,5-tetrahydro-1H-[1,4]diazepino[1,2-a]indole-8-carboxamide] is 1.8-fold higher in IC50: 68 nM for the first, 120 nM for the second. The first is the more potent here.

First: Cn1cc(NC(=O)c2ccc3cc4n(c3c2)CCCNC4=O)nc1C(=O)NC1CCCC1 [Example 232, N-[2-(cyclopentylcarbamoyl)-1-methyl-1H-imidazol-4-yl]-1-oxo-2,3,4,5-tetrahydro-1H-[1,4]diazepino[1,2-a]indole-8-carboxamide]
Second: Cn1cc(NC(=O)c2ccc3cc4n(c3c2)C(C)(C)CNC4=O)nc1C(=O)NC(C)(C)C [Example 231, N-[2-(tert-butylcarbamoyl)-1-methyl-1H-imidazol-4-yl]-4,4-dimethyl-1-oxo-1,2,3,4-tetrahydropyrazino[1,2-a]indole-7-carboxamide]
The IC50 of the first is 1.5-fold higher: 9 nM for the first, 6 nM for the second.

Compared with `Cc1ccccc1Cn1cc(NC(=O)c2ccc3cc4n(c3c2)CCCNC4=O)cn1` [Example 34, N-[1-(2-methylbenzyl)-1H-pyrazol-4-yl]-1-oxo-2,3,4,5-tetrahydro-1H-[1,4]diazepino[1,2-a]indole-8-carboxamide], `Cc1cc(C)cc(Cn2cc(NC(=O)c3ccc4cc5n(c4c3)CCCNC5=O)cn2)c1` [Example 28, N-[1-(3,5-dimethylbenzyl)-1H-pyrazol-4-yl]-1-oxo-2,3,4,5-tetrahydro-1H-[1,4]diazepino[1,2-a]indole-8-carboxamide] is 4.2-fold lower in IC50: 7.9 nM for the first, 1.9 nM for the second.

First: CC1CNC(=O)c2cc3ccc(C(=O)Nc4cc5ccccc5[nH]4)cc3n21 (stereo not drawn) [Example 177, N-(1H-indol-2-yl)-4-methyl-1-oxo-1,2,3,4-tetrahydropyrazino[1,2-a]indole-7-carboxamide]
Second: CCn1c(NC(=O)c2ccc3cc4n(c3c2)C(C)(C)CNC4=O)nc2ccccc21 [Example 82, N-(1-ethyl-1H-benzimidazol-2-yl)-4,4-dimethyl-1-oxo-1,2,3,4-tetrahydropyrazino[1,2-a]indole-7-carboxamide]
The IC50 of the first is 32-fold higher: 8 nM for the first, 0.25 nM for the second. The second is the more potent here.
